In patent publication US4199568A, “Tetrapeptide amides” (Reckitt & Colman Products Limited, priority 1977, dated 1980):

Columns and labels:
[1] = tested on: phenylquinone induced writhing; assay: mouse phenylquinone induced writhing test (Hendershot and Forsaith); format: in vivo; conditions: administered i.v.
Description: The compounds were also evaluated in the mouse phenylquinone induced writhing test of Hendershot L. C. and Forsaith J., J. Pharm. Exp. Therap.

[2] = tested on: opiate receptor sites; assay: transmurally stimulated guinea pig ileum preparation (Kosterlitz and Watt), agonist activity compared with Met-enkephaline; format: cell-based; conditions: isolated guinea pig ileum twitch response, 0.1 Hz stimulation; dose response curve compared with Met-enkephaline
Description: Thus for example they have affinity for opiate receptor sites and as such may be useful as anagesics, narcotic antagonists or anti-diarrhoeal agents. The test used for the detection of their agonist activity at opiate receptor sites is that of employing the transmurally stimulated guinea pig ileum preparation described in Kosterlitz H. W., and Watt A. J., Brit. J. Pharmacol, and Chemotherapy 33, […] (1968).
In the above mentioned test method of Kosterlitz and Watt male or female guinea pigs (Duncan Hartley strain) are killed by a blow on the head and a portion of the ileum removed and set up in an isolated organ bath of 50 ml volume. A `twitch` response is produced by low frequency (0.1 Hz) stimulation with 0.5 msec rectilinear pulses. The response is depressed by a large number of different pharmacologically active agents (local anaesthetics, smooth muscle depressants, presynaptic α-receptor stimulants, and narcotic agonists).
A test compound is dissolved in distilled water to produce a stock solution of concentration 1 mg/ml. Serial dilutions are carried out using Krebs solution to product concentrations of 10 ug, 1 ug and 0.1 ug/ml. The compound is tested by adding between 0.1-0.3 ml of the solutions to the organ bath. A dose response curve is then drawn and compared with that for Met-enkephaline.

Row | Compound | ED50 [1] | activity relative to Met-enkephaline [2]
1 | CN[C@@H](Cc1ccc(O)cc1)C(=O)N[C@H](C)C(=O)NCC(=O)N(C)[C@@H](Cc1ccccc1)C(=O)NCCC[S+](C)[O-].Cl (stereo partly drawn) [Me-Tyr-D-Ala-Gly-MePhe-NH(CH2)3 SOMe, N-Methyl-L-tyrosyl-D-alanyl-glycyl-N-methyl-L-phenylalanine-3-methylsulphinylpropylamide hydrochloride] | 4 µg/kg | approximately fifteen
2 | C[C@@H](NC(=O)[C@@H](N)Cc1ccc(O)cc1)C(=O)NCC(=O)N(C)[C@@H](Cc1ccccc1)C(=O)NCCC[S+](C)[O-].Cl (stereo partly drawn) [H-Tyr-D-Ala-Gly-MePhe-NH(CH2)3 SOMe, L-Tyrosyl-D-alanyl-glycyl-N-methyl-L-phenylalanine-3-methylsulphinylpropylamide hydrochloride] | 4.5 µg/kg | approximately eleven
